Experiments:
PGC-1α = PGC-1α levels in SH-SY5Y cells by immunoblot; assay type: cell-based; conditions: FIG. 3H
Experimental: The 9 compounds that activate the PGC-1α promoter in the presence of PARIS were evaluated to determine which compounds induce PGC-1α levels in SH-SY5Y cells (FIGS. 2A and 2B). […] The mRNA level of PGC-1α target genes including copper/zinc superoxide dismutase (SOD1), manganese SOD (SOD2), glutathione peroxidase (GPx1), catalase (CAT), nuclear respiratory factor-1 (NRF-1), mitochondrial transcription factor A (TFAM), mitochondrial uncoupling proteins (UCP2 and UCP3), and the oxidative phosphorylation regulators, ATP5b, cytochrome C (CytC) and cytochrome C oxidase (COX II and IV) were determined by real-time quantitative RT-PCR (qRT-PCR) (FIG. 2C).
(§1) Geraniol or geranylgeraniol have no effect on PGC-1α levels (FIG. 3H).

FTase = FTase (Homo sapiens, UniProt P49354+P49356); assay: In vitro farnesylation of recombinant GST-PARIS by FTase and FPP; assay type: biochemical
Experimental: Next, a biotechnological approach to confirm that PARIS is prenylated was applied (Nguyen et al., 2009). The total cell lysate of SH-SY5Y cells transfected with Flag-tagged PARIS was incubated with a biotin-functionalized geranyl pyrophosphate analogue (Biotin-GPP) and the recombinant FTase W102T/Y154T mutant, which was engineered to utilize Biotin-GPP as a lipid donor (Nguyen et al., 2009). […] In addition, the immunoprecipitate of Flag-tagged PARIS from SH-SY5Y cells transfected with either siRNA-control or siRNA-FTase α was mixed with NBD-GPP, a […] fluorescent analog of FPP for an in vitro farnesylation assay (IVF). […] To determine whether FTase directly farnesylates PARIS, recombinant GST-PARIS was incubated with FTase and FPP in the presence and absence of the FTase inhibitor, FTI-277. GST-PARIS undergoes farnesylation by FTase, which is abolished by the addition of FTase inhibitor, FTI-277 (FIG. 3E).
The in vitro farnesylation assay (IVF) was performed as described (Nguyen et al., 2009; Nguyen et al., 2010; Wu et al., 2007). Briefly, for metabolic global farnesylation, 5 μCi [^3H]-farnesyl pyrophosphate (FPP) (NET1042001MC, PerkinElmer) was treated into SH-SY5Y cells and immunoprecipitant was monitored by immunoblot analysis with Farnesyl antibody. […] For fluorescence-based IVF, immunoprecipitated Flag-tagged PARIS was incubated for 20 min with NBD-GPP (LI-014, Jena Bioscience). […]

PARIS = PARIS farnesylation in SH-SY5Y cells transfected with Flag-tagged PARIS (immunoprecipitation); assay type: cell-based; conditions: PARIS overexpression, farnesol
Experimental: as §1
To confirm that farnesylation of PARIS requires FTase, siRNA-FTase α knockdown or FTI-277 inhibition of FTase in the setting of PARIS overexpression was performed (FIG. 4C). […] To ascertain whether the farnesylation of PARIS affects the DNA binding activity of PARIS on the IRS motif of the PGC-1α promoter, a chromatin immunoprecipitation assay (ChIP) was performed from SH-SY5Y transfected with GFP-tagged PARIS WT or GFP-tagged PARIS C631S. […] To examine the possibility that the farnesylation of PARIS alters its subcellular distribution, subcellular fractionation was used to monitor the levels of PARIS in cytosolic, membrane, soluble nuclear, and chromatin-bound nuclear fractions by immunoblot analysis (FIG. 4F).

SMILES	PGC-1α levels, specificity test with compounds of similar structure (PGC-1α)	farnesylation of GST-PARIS by FTase (FTase)	farnesylation of PARIS by farnesol under FTase inhibition (PARIS)
CC(C)=CCC/C(C)=C/CO [Geraniol]	no effect	–	–
CC(C)=CCC/C(C)=C/CC/C(C)=C/CC/C(C)=C/CO [geranylgeraniol]	no effect	–	–
COC(=O)[C@H](CCSC)NC(=O)c1ccc(NC[C@@H](N)CS)cc1-c1ccccc1 [FTI-277, reference compound]	–	abolished	strongly prevents farnesylation of PARIS by farnesol

— patent US20190117586A1, “METHODS OF PREVENTING OR TREATING PARKINSON'S DISEASE BY THE FARNESYLATION OF PARIS” (The Johns Hopkins University, priority 2016, published 2019)
